pIC50: −log10 of the molar value. Like-named read-outs stand apart in the source and are kept apart here.
Target: T1, rat CB-1 receptor (Rattus norvegicus, UniProt P20272)
T1 construct: The tissue obtained from the brain of SD rats was homogenized; from tissue; host or cells: brain of SD rats (membrane pellet of homogenate)
Test: rat CB-1 receptor binding protocol with [3H]CP-55940

[1] = [3H]CP-55940, brain tissue of SD rats, 30 °C for 60 min, read-out: IC50

T1 sequence (P20272 whole entry): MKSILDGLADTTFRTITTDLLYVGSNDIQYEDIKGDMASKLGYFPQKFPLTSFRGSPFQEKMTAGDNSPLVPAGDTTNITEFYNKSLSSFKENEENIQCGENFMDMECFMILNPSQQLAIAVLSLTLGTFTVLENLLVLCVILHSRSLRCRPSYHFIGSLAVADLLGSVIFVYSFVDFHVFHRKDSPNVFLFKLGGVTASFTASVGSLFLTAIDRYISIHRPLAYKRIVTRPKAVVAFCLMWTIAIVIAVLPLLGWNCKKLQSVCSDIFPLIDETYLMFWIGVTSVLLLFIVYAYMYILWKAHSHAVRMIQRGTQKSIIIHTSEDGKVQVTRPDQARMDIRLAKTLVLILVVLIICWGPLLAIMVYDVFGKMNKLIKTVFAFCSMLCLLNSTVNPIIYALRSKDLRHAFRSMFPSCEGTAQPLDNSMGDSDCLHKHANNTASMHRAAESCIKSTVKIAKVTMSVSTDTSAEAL

| pIC50 [1] | Compound | pIC50 |
| --- | --- | --- |
| 7.78 | CCc1c(-c2nnc(C3(C(F)(F)F)CC3)o2)nc(-c2ccc(Cl)cc2Cl)n1-c1ccc(Br)cc1 [Example 49, 2-(1-(4-Bromophenyl)-2-(2,4-dichlorophenyl)-5-ethyl-1H-imidazol-4-yl)-5-(1-(trifluoromethyl)cyclopropyl)-1,3,4-oxadiazole] |  |
|  | CCc1c(-c2nnc(C3(C(F)(F)F)CCC3)o2)nc(-c2ccc(Cl)cc2Cl)n1-c1ccc(Br)cc1 [Example 50, 2-(1-(4-Bromophenyl)-2-(2,4-dichlorophenyl)-5-ethyl-1H-imidazol-4-yl)-5-(1-(trifluoromethyl)cyclobutyl)-1,3,4-oxadiazole] | 8.02 |
|  | Cc1c(-c2nnc(C(C)(C)C)o2)nc(-c2ccccc2Cl)n1-c1ccc(Br)cc1 [Example 51, 2-(1-(4-Bromophenyl)-2-(2-chlorophenyl)-5-methyl-1H-imidazol-4-yl)-5-tert-butyl-1,3,4-oxadiazole] | 7.50 |
| 7.73 | Cc1c(-c2nnc(C3(C(F)(F)F)CC3)o2)nc(-c2ccccc2Cl)n1-c1ccc(Br)cc1 [Example 52, 2-(1-(4-Bromophenyl)-2-(2-chlorophenyl)-5-methyl-1H-imidazol-4-yl)-5-(1-(trifluoromethyl)cyclopropyl)-1,3,4-oxadiazole] |  |
|  | Cc1c(-c2nnc(C3(C(F)(F)F)CCC3)o2)nc(-c2ccccc2Cl)n1-c1ccc(Br)cc1 [Example 53, 2-(1-(4-Bromophenyl)-2-(2-chlorophenyl)-5-methyl-1H-imidazol-4-yl)-5-(1-(trifluoromethyl)cyclobutyl)-1,3,4-oxadiazole] | 7.94 |
| 7.83 | CCc1c(-c2nnc(C(C)(C)C)o2)nc(-c2ccccc2Cl)n1-c1ccc(Br)cc1 [Example 55, 2-(1-(4-Bromophenyl)-2-(2-chlorophenyl)-5-ethyl-1H-imidazol-4-yl)-5-tert-butyl-1,3,4-oxadiazole] |  |
| 7.70 | CCc1c(-c2nnc(C3(C(F)(F)F)CC3)o2)nc(-c2ccccc2Cl)n1-c1ccc(Br)cc1 [Example 56, 2-(1-(4-Bromophenyl)-2-(2-chlorophenyl)-5-ethyl-1H-imidazol-4-yl)-5-(1-(trifluoromethyl)cyclopropyl)-1,3,4-oxadiazole] |  |
|  | CCc1c(-c2nnc(C3(C(F)(F)F)CCC3)o2)nc(-c2ccccc2Cl)n1-c1ccc(Br)cc1 [Example 57, 2-(1-(4-Bromophenyl)-2-(2-chlorophenyl)-5-ethyl-1H-imidazol-4-yl)-5-(1-(trifluoromethyl)cyclobutyl)-1,3,4-oxadiazole] | 7.87 |
| 7.99 | CCc1c(-c2nnc(C3(c4ccc(Cl)cc4)CC3)o2)nc(-c2ccccc2Cl)n1-c1ccc(Br)cc1 [Example 58, 2-(1-(4-Bromophenyl)-2-(2-chlorophenyl)-5-ethyl-1H-imidazol-4-yl)-5-(1-(4-chlorophenyl)cyclopropyl)-1,3,4-oxadiazole] |  |
| 8.28 | CC(C)(C)c1nnc(-c2nc(-c3ccc(Cl)cc3Cl)n(-c3ccc(Br)cc3)c2Cn2cncn2)o1 [Example 74, 2-(5-((1H-1,2,4-Triazol-1-yl)methyl)-1-(4-bromophenyl)-2-(2,4-dichlorophenyl)-1H-imidazol-4-yl)-5-tert-butyl-1,3,4-oxadiazole] |  |
| 8.06 | FC(F)(F)C1(c2nnc(-c3nc(-c4ccc(Cl)cc4Cl)n(-c4ccc(Br)cc4)c3Cn3cncn3)o2)CC1 [Example 75, 2-(5-((1H-1,2,4-Triazol-1-yl)methyl)-1-(4-bromophenyl)-2-(2,4-dichlorophenyl)-1H-imidazol-4-yl)-5-(1-(trifluoromethyl)cyclopropyl)-1,3,4-oxadiazole] |  |
|  | FC(F)(F)C1(c2nnc(-c3nc(-c4ccc(Cl)cc4Cl)n(-c4ccc(Br)cc4)c3Cn3cncn3)o2)CCC1 [Example 76, 2-(5-((1H-1,2,4-Triazol-1-yl)methyl)-1-(4-bromophenyl)-2-(2,4-dichlorophenyl)-1H-imidazol-4-yl)-5-(1-(trifluoromethyl)cyclobutyl)-1,3,4-oxadiazole] | 8.40 |
| 8.47 | Clc1ccc(C2(c3nnc(-c4nc(-c5ccc(Cl)cc5Cl)n(-c5ccc(Br)cc5)c4Cn4cncn4)o3)CC2)cc1 [Example 77, 2-(5-((1H-1,2,4-Triazol-1-yl)methyl)-1-(4-bromophenyl)-2-(2,4-dichlorophenyl)-1H-imidazol-4-yl)-5-(1-(4-chlorophenyl)cyclopropyl)-1,3,4-oxadiazole] |  |
| 7.99 | CC(C)(C)c1nnc(-c2nc(-c3ccccc3Cl)n(-c3ccc(Br)cc3)c2Cn2cncn2)o1 [Example 78, 2-(5-((1H-1,2,4-Triazol-1-yl)methyl)-1-(4-bromophenyl)-2-(2-chlorophenyl)-1H-imidazol-4-yl)-5-tert-butyl-1,3,4-oxadiazole] |  |
| 8.16 | FC(F)(F)C1(c2nnc(-c3nc(-c4ccccc4Cl)n(-c4ccc(Br)cc4)c3Cn3cncn3)o2)CC1 [Example 79, 2-(5-((1H-1,2,4-Triazol-1-yl)methyl)-1-(4-bromophenyl)-2-(2-chlorophenyl)-1H-imidazol-4-yl)-5-(1-(trifluoromethyl)cyclopropyl)-1,3,4-oxadiazole] |  |
| 8.47 | FC(F)(F)C1(c2nnc(-c3nc(-c4ccccc4Cl)n(-c4ccc(Br)cc4)c3Cn3cncn3)o2)CCC1 [Example 80, 2-(5-((1H-1,2,4-Triazol-1-yl)methyl)-1-(4-bromophenyl)-2-(2-chlorophenyl)-1H-imidazol-4-yl)-5-(1-(trifluoromethyl)cyclobutyl)-1,3,4-oxadiazole] |  |

| pIC50 [1] | Compound | pIC50 |
| --- | --- | --- |
| 7.92 | CC(C)(C)c1nnc(-c2nc(-c3ccc(Cl)cc3Cl)n(-c3ccc(Cl)cc3)c2Cn2cncn2)o1 [Example 87, 2-(5-((1H-1,2,4-Triazol-1-yl)methyl)-1-(4-chlorophenyl)-2-(2,4-dichlorophenyl)-1H-imidazol-4-yl)-5-tert-butyl-1,3,4-oxadiazole] |  |
| 8.82 | Clc1ccc(-n2c(-c3ccc(Cl)cc3Cl)nc(-c3nnc(C4(c5ccc(Cl)cc5)CC4)o3)c2Cn2cncn2)cc1 [Example 88, 2-(5-((1H-1,2,4-Triazol-1-yl)methyl)-1-(4-chlorophenyl)-2-(2,4-dichlorophenyl)-1H-imidazol-4-yl)-5-(1-(4-chlorophenyl)cyclopropyl)-1,3,4-oxadiazole] |  |
| 8.94 | FC(F)(F)C1(c2nnc(-c3nc(-c4ccc(Cl)cc4Cl)n(-c4ccc(Cl)cc4)c3Cn3cncn3)o2)CC1 [Example 89, 2-(5-((1H-1,2,4-Triazol-1-yl)methyl)-1-(4-chlorophenyl)-2-(2,4-dichlorophenyl)-1H-imidazol-4-yl)-5-(1-(trifluoromethyl)cyclopropyl)-1,3,4-oxadiazole] |  |
| 7.69 | Cc1c(-c2nnc(C(C)(C)C)s2)nc(-c2ccc(Cl)cc2Cl)n1-c1ccc(Cl)cc1 [Example 90, 2-tert-Butyl-5-(1-(4-chlorophenyl)-2-(2,4-dichlorophenyl)-5-methyl-1H-imidazol-4-yl)-1,3,4-thiadiazole] |  |
| 7.34 | Cc1c(-c2nnc(C3CCCCC3)s2)nc(-c2ccc(Cl)cc2Cl)n1-c1ccc(Cl)cc1 [Example 91, 2-(1-(4-Chlorophenyl)-2-(2,4-dichlorophenyl)-5-methyl-1H-imidazol-4-yl)-5-cyclohexyl-1,3,4-thiadiazole] |  |
| 7.97 | Cc1c(-c2nnc(C3CCCC3)s2)nc(-c2ccc(Cl)cc2Cl)n1-c1ccc(Cl)cc1 [Example 92, 2-(1-(4-Chlorophenyl)-2-(2,4-dichlorophenyl)-5-methyl-1H-imidazol-4-yl)-5-cyclopentyl-1,3,4-thiadiazole] |  |
| 7.37 | Cc1c(-c2nnc(C3CCC3)s2)nc(-c2ccc(Cl)cc2Cl)n1-c1ccc(Cl)cc1 [Example 93, 2-(1-(4-Chlorophenyl)-2-(2,4-dichlorophenyl)-5-methyl-1H-imidazol-4-yl)-5-cyclobutyl-1,3,4-thiadiazole] |  |
| 7.67 | Cc1c(-c2nnc(C3CCCCCC3)s2)nc(-c2ccc(Cl)cc2Cl)n1-c1ccc(Cl)cc1 [Example 94, 2-(1-(4-Chlorophenyl)-2-(2,4-dichlorophenyl)-5-methyl-1H-imidazol-4-yl)-5-cycloheptyl-1,3,4-thiadiazole] |  |
| 7.82 | CCCCC(C)c1nnc(-c2nc(-c3ccc(Cl)cc3Cl)n(-c3ccc(Cl)cc3)c2C)s1 (centres unmarked) [Example 95, 2-(1-(4-Chlorophenyl)-2-(2,4-dichlorophenyl)-5-methyl-1H-imidazol-4-yl)-5-(hexan-2-yl)-1,3,4-thiadiazole] |  |
| 7.90 | CCCC(C)c1nnc(-c2nc(-c3ccc(Cl)cc3Cl)n(-c3ccc(Cl)cc3)c2C)s1 (centres unmarked) [Example 96, 2-(1-(4-Chlorophenyl)-2-(2,4-dichlorophenyl)-5-methyl-1H-imidazol-4-yl)-5-(pentan-2-yl)-1,3,4-thiadiazole] |  |
| 7.55 | CCC(C)c1nnc(-c2nc(-c3ccc(Cl)cc3Cl)n(-c3ccc(Cl)cc3)c2C)s1 (centres unmarked) [Example 97, 2-sec-Butyl-5-(1-(4-chlorophenyl)-2-(2,4-dichlorophenyl)-5-methyl-1H-imidazol-4-yl)-1,3,4-thiadiazole] |  |
| 7.65 | Cc1c(-c2nnc(C(C)C)s2)nc(-c2ccc(Cl)cc2Cl)n1-c1ccc(Cl)cc1 [Example 98, 2-(1-(4-Chlorophenyl)-2-(2,4-dichlorophenyl)-5-methyl-1H-imidazol-4-yl)-5-isopropyl-1,3,4-thiadiazole] |  |
| 7.71 | CCC(CC)c1nnc(-c2nc(-c3ccc(Cl)cc3Cl)n(-c3ccc(Cl)cc3)c2C)s1 [Example 99, 2-(1-(4-Chlorophenyl)-2-(2,4-dichlorophenyl)-5-methyl-1H-imidazol-4-yl)-5-(pentan-3-yl)-1,3,4-thiadiazole] |  |
| 7.77 | Cc1c(-c2nnc(C(C)c3ccccc3)s2)nc(-c2ccc(Cl)cc2Cl)n1-c1ccc(Cl)cc1 (centres unmarked) [Example 100, 2-(1-(4-Chlorophenyl)-2-(2,4-dichlorophenyl)-5-methyl-1H-imidazol-4-yl)-5-(1-phenylethyl)-1,3,4-thiadiazole] |  |
| 7.75 | CCc1c(-c2nnc(C3CCCC3)s2)nc(-c2ccc(Cl)cc2Cl)n1-c1ccc(Cl)cc1 [Example 102, 2-(1-(4-Chlorophenyl)-2-(2,4-dichlorophenyl)-5-ethyl-1H-imidazol-4-yl)-5-cyclopentyl-1,3,4-thiadiazole] |  |
| 7.79 | CCc1c(-c2nnc(C3CCC3)s2)nc(-c2ccc(Cl)cc2Cl)n1-c1ccc(Cl)cc1 [Example 103, 2-(1-(4-Chlorophenyl)-2-(2,4-dichlorophenyl)-5-ethyl-1H-imidazol-4-yl)-5-cyclobutyl-1,3,4-thiadiazole] |  |

— US20080207705A1, “Heteroaryl-Imidazole Derivatives as Cannabinoid CB1 Receptor Antagonists” (Green Cross Corporation, priority 2007, published 2008)
